Data on 16 compounds can be found in PubChem BioAssay AID248 (DTP/NCI, 2004).

The experiment relates to L1210 leukemia ip in BDF1 mice, survival T/C. Description: NCI In Vivo Anticancer Drug Screen. Data for tumor model L1210 Leukemia (intraperitoneal) in B6D2F1 (BDF1) mice. The note with it: endpoint: mean survival time, higher = longer survival. The procedure, abridged:
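Read-out is survival time, reported as the treated-group measurement over the vehicle-control measurement.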

Setting [1] is: dose: 100.0 mg/kg/injection, schedule: Q01DX001 (ip), vehicle: saline.
[2] abbreviates: dose: 200.0 mg/kg/injection, schedule: Q01DX001 (ip), vehicle: saline.
[3] abbreviates: dose: 100.0 mg/kg/injection, schedule: Q04DX003 (ip), vehicle: Klucel (hydroxypropylcellulose) (HPC).
[4] abbreviates: dose: 100.0 mg/kg/injection, schedule: Q04DX003 (ip), vehicle: saline with Tween-80.
Setting [5] is: dose: 100.0 mg/kg/injection, schedule: Q04DX002 (ip), vehicle: saline with Tween-80.
[6] abbreviates: dose: 200.0 mg/kg/injection, schedule: Q04DX002 (ip), vehicle: saline with Tween-80.
The mark [7] stands for this setting: dose: 400.0 mg/kg/injection, schedule: Q01DX001 (ip), vehicle: saline.

The structures appear in SMILES notation. Where “and” joins values, the source holds several entries; their conditions need not be identical. Equal values may be shown once. Toxic doses and inconclusive results are not listed.

Regarding `COc1ccc([I+]c2ccc(OC)cc2)cc1`, the T/C by setting is: (dose: 0.63 mg/kg/injection, schedule: Q01DX009 (ip), vehicle: water) 100 % of control; (dose: 1.25 mg/kg/injection, schedule: Q01DX009 (ip), vehicle: water) 101 % of control; (dose: 2.5 mg/kg/injection, schedule: Q01DX009 (ip), vehicle: water) 105 % of control; (dose: 2.5 mg/kg/injection, schedule: Q04DX003 (ip), vehicle: water) 103 % of control; (dose: 3.12 mg/kg/injection, schedule: Q01DX009 (ip), vehicle: saline) 103 % of control; (dose: 5.0 mg/kg/injection, schedule: Q04DX003 (ip), vehicle: water) 108 % of control. In addition, the T/C reads like this: (dose: 6.25 mg/kg/injection, schedule: Q01DX009 (ip), vehicle: saline) 107 % of control; (dose: 10.0 mg/kg/injection, schedule: Q04DX003 (ip), vehicle: water) 101 % of control; (dose: 12.5 mg/kg/injection, schedule: Q01DX009 (ip), vehicle: saline) 91 % of control; (dose: 50.0 mg/kg/injection, schedule: Q04DX003 (ip), vehicle: acetone) 103 % of control; under setting [1], 111 % of control; (dose: 100.0 mg/kg/injection, schedule: Q04DX003 (ip), vehicle: acetone) 100 % of control. Besides, the T/C under setting [2] is 109 % of control.
For `CCCCN(C)N=Nc1cn(C2OC(CO)C(O)C2O)c(=O)[nH]c1=O` (stereo not given), the T/C reads like this: (dose: 100.0 mg/kg/injection, schedule: Q01DX009 (ip), vehicle: water) 112 % of control; (dose: 100.0 mg/kg/injection, schedule: Q04DX003 (ip), vehicle: water) 96 % of control; (dose: 200.0 mg/kg/injection, schedule: Q01DX009 (ip), vehicle: water) 106 % of control; (dose: 200.0 mg/kg/injection, schedule: Q04DX003 (ip), vehicle: water) 102 % of control; (dose: 400.0 mg/kg/injection, schedule: Q01DX009 (ip), vehicle: water) 117 % of control; (dose: 400.0 mg/kg/injection, schedule: Q04DX003 (ip), vehicle: water) 107 % of control.
Take `C=CCc1ccc(OCCOCCNC2CC(C)CCC2C(C)C)c(OC)c1` (stereo not given): the T/C under setting [3] is 92 % of control.
For the compound `CCCCCC(N)C(=O)O` (stereo not given), the T/C by setting is: (dose: 12.5 mg/kg/injection, schedule: Q04DX002 (ip), vehicle: saline) 104 % of control; (dose: 25.0 mg/kg/injection, schedule: Q04DX002 (ip), vehicle: saline) 100 % of control; (dose: 50.0 mg/kg/injection, schedule: Q04DX002 (ip), vehicle: saline) 107 % of control.
For the compound `O=[N+]([O-])c1ccc(OCCCCCBr)c(Cl)c1`, the T/C is 102 % of control (dose: 100.0 mg/kg/injection, schedule: Q04DX003 (ip), vehicle: gum acacia); 100 % of control (dose: 200.0 mg/kg/injection, schedule: Q04DX003 (ip), vehicle: gum acacia); 102 % of control (dose: 400.0 mg/kg/injection, schedule: Q04DX003 (ip), vehicle: gum acacia).
With `CC1N2CC12c1ccccc1` (stereo not given), the T/C (dose: 10.0 mg/kg/injection, schedule: Q01DX001 (ip), vehicle: saline) is 103 % of control; the T/C (dose: 20.0 mg/kg/injection, schedule: Q01DX001 (ip), vehicle: saline) was 108 % of control; the T/C (dose: 40.0 mg/kg/injection, schedule: Q01DX001 (ip), vehicle: saline) was 103 % of control.
For the compound `COc1cc(NC(C)=O)c2ncccc2c1`, the T/C (dose: 100.0 mg/kg/injection, schedule: Q01DX009 (ip), vehicle: saline with Tween-80) is 99 % of control and the T/C (dose: 200.0 mg/kg/injection, schedule: Q01DX009 (ip), vehicle: saline with Tween-80) was 106 % of control.
`CC(C)(C)C(=O)CSC/C(=N/O)C(C)(C)C`: the T/C by setting is: under setting [3], 112 % of control; (dose: 200.0 mg/kg/injection, schedule: Q04DX003 (ip), vehicle: Klucel (hydroxypropylcellulose) (HPC)) 103 % of control; (dose: 400.0 mg/kg/injection, schedule: Q04DX003 (ip), vehicle: Klucel (hydroxypropylcellulose) (HPC)) 99 % of control.
Regarding `NC(=O)N/N=C/c1cccs1`, the T/C runs as follows: (dose: 25.0 mg/kg/injection, schedule: Q04DX003 (ip), vehicle: saline with Tween-80) 95 % of control; (dose: 50.0 mg/kg/injection, schedule: Q04DX003 (ip), vehicle: saline with Tween-80) 103 % of control; under setting [4], 106 % of control.
In the case of `CCN(CC)CC(C)Nc1ccc([N+](=O)[O-])c2sc3ccccc3c(=O)c12` (stereo not given), the T/C is 122 % of control (dose: 9.0 mg/kg/injection, schedule: Q01DX Z (ip), vehicle: carboxymethylcellulose (CMC)); 107 % of control (dose: 10.0 mg/kg/injection, schedule: Q01DX Z (ip), vehicle: other); 108 % of control and 112 % of control (dose: 12.0 mg/kg/injection, schedule: Q01DX Z (ip), vehicle: methylcellulose (MC)); 108 % of control (dose: 17.7 mg/kg/injection, schedule: Q01DX Z (ip), vehicle: carboxymethylcellulose (CMC)); 110 % of control and 114 % of control (dose: 18.0 mg/kg/injection, schedule: Q01DX Z (ip), vehicle: methylcellulose (MC)); 122 % of control (dose: 26.0 mg/kg/injection, schedule: Q01DX Z (ip), vehicle: carboxymethylcellulose (CMC)). For the same compound, the T/C is 122 % of control (dose: 27.0 mg/kg/injection, schedule: Q01DX Z (ip), vehicle: carboxymethylcellulose (CMC)); 175 % of control (dose: 40.0 mg/kg/injection, schedule: Q01DX Z (ip), vehicle: carboxymethylcellulose (CMC)); 169 % of control (dose: 41.0 mg/kg/injection, schedule: Q01DX Z (ip), vehicle: carboxymethylcellulose (CMC)); 170 % of control (dose: 80.0 mg/kg/injection, schedule: Q01DX Z (ip), vehicle: carboxymethylcellulose (CMC)); 171 % of control (dose: 90.0 mg/kg/injection, schedule: Q01DX Z (ip), vehicle: other); 158 % of control (dose: 250.0 mg/kg/injection, schedule: Q## X000 (other), vehicle: carboxymethylcellulose (CMC)). Further, the T/C (dose: 270.0 mg/kg/injection, schedule: Q01DX Z (ip), vehicle: other) is 97 % of control.
For the compound `CCCNC(=O)C1C2C=CC(C2)C1C(=O)NCCC` (stereo not given), the T/C is 91 % of control under setting [4]; 91 % of control (dose: 200.0 mg/kg/injection, schedule: Q04DX003 (ip), vehicle: saline with Tween-80); 91 % of control (dose: 400.0 mg/kg/injection, schedule: Q04DX003 (ip), vehicle: saline with Tween-80).
Take `O=C1OC(C(O)CO)C(O)C1O` (stereo not given): the T/C (dose: 25.0 mg/kg/injection, schedule: Q04DX002 (ip), vehicle: saline with Tween-80) was 101 % of control; the T/C (dose: 50.0 mg/kg/injection, schedule: Q01DX001 (ip), vehicle: saline) was 94 % of control; the T/C (dose: 50.0 mg/kg/injection, schedule: Q04DX002 (ip), vehicle: saline with Tween-80) was 101 % of control; the T/C under setting [1] is 100 % of control; the T/C under setting [5] is 96 % of control; the T/C under setting [2] is 100 % of control. Also, the T/C under setting [6] was 101 % of control and the T/C under setting [7] was 92 % of control.
Turning to `Cc1nc(S(C)(=O)=O)nc(S(C)(=O)=O)c1Cl`, the T/C was 92 % of control (dose: 1.5 mg/kg/injection, schedule: Q01DX001 (ip), vehicle: Klucel (hydroxypropylcellulose) (HPC)); 95 % of control (dose: 3.0 mg/kg/injection, schedule: Q01DX001 (ip), vehicle: Klucel (hydroxypropylcellulose) (HPC)); 104 % of control (dose: 6.0 mg/kg/injection, schedule: Q01DX001 (ip), vehicle: Klucel (hydroxypropylcellulose) (HPC)); 104 % of control (dose: 12.0 mg/kg/injection, schedule: Q01DX001 (ip), vehicle: Klucel (hydroxypropylcellulose) (HPC)); 107 % of control (dose: 12.5 mg/kg/injection, schedule: Q01DX001 (ip), vehicle: Klucel (hydroxypropylcellulose) (HPC)).
For the compound `CC1C(C)(C)P(N)(=O)C1(C)C` (stereo not given), the T/C reads like this: (dose: 100.0 mg/kg/injection, schedule: Q04DX003 (ip), vehicle: saline) 100 % of control; (dose: 200.0 mg/kg/injection, schedule: Q04DX003 (ip), vehicle: saline) 103 % of control; (dose: 400.0 mg/kg/injection, schedule: Q04DX003 (ip), vehicle: saline) 97 % of control.
With `CCCCCCCCOC(=O)COc1cccc(C)c1`, the T/C by setting is: under setting [5], 103 % of control; under setting [6], 100 % of control; (dose: 400.0 mg/kg/injection, schedule: Q04DX002 (ip), vehicle: saline with Tween-80) 100 % of control.
Take `O=C(NCCSSCCNC(=O)c1ccccc1)c1ccccc1`: the T/C is 92 % of control under setting [1], 96 % of control under setting [2] and 100 % of control under setting [7].
